Read-outs that look alike come from different tables or passages of the source.
Assays:
[1] = tested on: wheat powdery mildew; test: Test of control effect on wheat powdery mildew (Test Example 1); format: in vivo; conditions: wettable powder 125 mg/l, 100 liters/10 a, sprinkled on wheat seedlings (Nourin 64) before inoculation, examined 9th to 14th day after inoculation; for pest or weed control at 125 µg/mL: Triticum aestivum
Experimental: Wettable powders were prepared from compounds of the present invention I-1 to I-27 and comparative compounds (a) to (d) , (m-1) and (m-3). The obtained wettable powder was diluted and suspended with water to provide the predetermined concentration (125 mg/l), and was sprinkled onto seedlings of wheat (variety: "Nourin 64") at the first to the second leaf period which were cultivated using square plastic pots (size: 6.4 cm x 6.4 cm) in a rate of 100 liters/10 a (ares). After drying the sprinkled leaves with air, a suspension of wheat powdery mildew spores taken from infected leaves was inoculated by spraying onto the sprinkled leaves. They were supervised in a green house (temperature: 20 to 24°C, relative humidity: 20 to 70 RH). On the 9th to 14th day after the inoculation, the infection degree was examined according to the following scale and the control value of each compound was calculated by the following calculation equation 1. [table] (Equation 1) Control value = (1 - infection degree of treated zone/infection degree of untreated zone) x 100 (%) [formula] The control values of each compound are shown in Table 8.

[2] = tested on: wheat powdery mildew; test: Permeable mobility fungicidal effect test in leaf section of wheat powdery mildew (Test Example 4); format: in vivo
Experimental: In the test example 4, permeable mobility fungicidal effect test was performedon the leaf section of wheat powdery mildew with regard to the compounds I-1 to 27 according to the present invention and the comparative compounds (a) to (d), and (m-1) to (m-3) with the method described later. The compound in the form of a wettable powder obtained by Formulation 2 or the like was diluted and suspended with water to a predetermined concentration (200mg/l), and 0.5 µl of the suspension was applied to a 2 to 3 cm leaf portion from the root of the three leaves of the 4th to 4.5th leaf period wheat (variety: Abukumawase) cultured by using a square plastic pot (size: 6.4 cm x 6.4 cm). After these wheat leaves were subject to still standing in a glass house (temperature: 20 to 24C, relative humidity: 20 to 70 RH) for one day, the spores of wheat powdery mildew were inoculated over the leaves by sprinkling the same with a brush from an infected leaf, a disease was contracted in the same glass house. The length of a non-contracted area generated from the applied portion to the direction of the leaf top was measured, and a relative mobility to the compound (m-2) was calculated with the following calculation […] by using the comparative compound (m-2) as a standard compound. (Equation 4) Relative mobility = (Length of non-contracted area in each chemical section (cm)/Length of non-contracted area of compound (m-2) (cm)) [formula]

[3] = tested on: cucumber powdery mildew; test: Test of control effect on cucumber powdery mildew (Test Example 2); format: in vivo; conditions: wettable powder 100 mg/l, 100 liters/10 a, sprinkled on cucumbers (Sagamihanpakufushinari) before inoculation, examined 9th to 14th day after inoculation; for pest or weed control at 100 µg/mL: Cucumis sativus
Experimental: The wettable powders formulated by using each of the compounds I-1 to 27 according to the present invention and the comparative compounds (a) to (d), (m-1) and (m-3) were each diluted and suspended with water to a predetermined concentration (100 mg/l), the suspension was sprinkled over the first to the second leaf period cucumbers (variety: "[…]") cultivated by using a square plastic pot (size: 6. 4 cm x 6. 4 cm) in a rate of 100 liters/10 a (ares). After the sprinkled leaves were air-dried, the spores were inoculated over the leaves by sprinkling the same with a brush from an infected leaf, a disease was contracted in a glass house (temperature: 20 to 24°C, relative humidity: 20 to 70 RH). On the 9th to 14th day after the inoculation, the infection degree was examined according to the following scale and the control value of each compound was calculated by the following calculation equation 2: [table] (Equation 2) Control value = (1 - infection degree of treated zone/infection degree of untreated zone) x 100 (%) [formula] The control values of each compound are shown in Table 9.

[4] = tested on: Botrytis cinerea; test: Antifungal activity test against various pathogenic fungi, hypha extension on PDA plates (Test Example 3); format: cell-based; conditions: for inhibition at 1.6 ppm: read-out: Growth Inhibition B.c (1.6)
[5] = tested on: Microdochium nivale; test: as above; format: cell-based; conditions: read-out: Growth Inhibition M.n (3.2)
[6] = tested on: Pyricularia oryzae; test: microbe, parasite or virus in culture; format: cell-based; conditions: read-out: Growth Inhibition P.o (12.5)
[7] = tested on: Venturia inaequalis; test: Antifungal activity test against various pathogenic fungi, hypha extension on PDA plates (Test Example 3); format: cell-based; conditions: read-out: Growth Inhibition V.i (3.2)
[8] = tested on: Pyrenophora graminea; test: as above; format: cell-based; conditions: read-out: Growth Inhibition P.g (12.5)
[9] = tested on: Rhynchosporium secalis; test: as above; format: cell-based; conditions: read-out: Growth Inhibition R.s (100)
[10] = tested on: Leptosphaeria nodorum; test: as above; format: cell-based; conditions: Parastagonospora nodorum, read-out: Growth Inhibition L.n (0.8)
[11] = tested on: Septoria tritici; test: as above; format: cell-based; conditions: Zymoseptoria tritici, read-out: Growth Inhibition S.t (100)
[12] = tested on: Pseudocercosporella herpotrichoides; test: as above; format: cell-based; conditions: Oculimacula yallundae, read-out: Growth Inhibition P.h (25)
[13] = length of non-contracted area relative to compound (m-2), 0.5 µl of 200 mg/l suspension applied to wheat leaf (Abukumawase), inoculated after one day
[14] = 1.6 ppm in PDA culture medium, cultured 1 to 7 days
[15] = 3.2 ppm in PDA culture medium, cultured 1 to 7 days
[16] = 12.5 ppm in PDA culture medium, cultured 1 to 7 days
[17] = 100 ppm in PDA culture medium, cultured 1 to 7 days
[18] = Leptosphaeria nodorum, 0.8 ppm in PDA culture medium, cultured 1 to 7 days
[19] = Septoria tritici, 100 ppm in PDA culture medium, cultured 1 to 7 days

Row | SMILES | pest or weed control at 125 µg/mL [1] | Relative Mobility [2, 13] | pest or weed control at 100 µg/mL [3] | inhibition at 1.6 ppm [4, 14] | also measured
1 | CC(Cc1cccc(C(F)(F)F)c1)CN(C)Cc1ccc(Cl)nc1 (centres unmarked) [(a), 6-chloro-N-methyl-[2-methyl-3-(3-trifluoromethylphenyl)propyl]-3-pyridylmethylamine] | 70% | 1 | 50% | 20 to 40% | –
2 | CC(Cc1cccc(OC(F)(F)F)c1)CN(C)Cc1ccc(Cl)nc1 (centres unmarked) [(b), 6-chloro-N-methyl-[2-methyl-3-(3-trifluoromethoxyphenyl)propyl]-3-pyridylmethylamine] | 80% | 3 | 60% | 40 to 70% | –
3 | CC(Cc1cccc(Cl)c1Cl)CN(C)Cc1ccc(Cl)nc1 (centres unmarked) [(c-1), 6-chloro-N-[3-(2,3-dichlorophenyl)-2-methylpropyl]-N-me thyl-3-pyridylmethylamine] | 40% | 1 | 0% | 20 to 40% | –
4 | CC(Cc1ccccc1Cl)CN(C)Cc1ccc(Cl)nc1 (centres unmarked) [(c-2), 6-chloro-N-[3-(2-chlorophenyl)-2-methylpropyl]-N-methyl-3-pyridylmethylamine, reference compound] | 40% | 1 | 0% | 20 to 40% | inhibition at 3.2 ppm [5, 15]: 20 to 40%; inhibition at 12.5 ppm [6]: 40 to 70%; inhibition at 3.2 ppm [7, 15]: 20 to 40%; inhibition at 12.5 ppm [8, 16]: 20 to 40%; inhibition at 100 ppm [9, 17]: 20 to 40%; inhibition at 0.8 ppm [10, 18]: 40 to 70%
5 | CC(Cc1cccc(Cl)c1)CN(C)Cc1ccc(Cl)nc1 (centres unmarked) [(c-3), 6-chloro-N-[3-(3-chlorophenyl)-2-methylpropyl]-N-methyl-3-pyridylmethylamine] | 50% | 1 | 0% | 20 to 40% | –
6 | CC(Cc1cccc(F)c1)CN(C)Cc1ccc(Cl)nc1 (centres unmarked) [(c-4), 6-chloro-N-[3-(3-fluorophenyl)-2-methylpropyl]-N-methyl-3-pyridylmethylamine, reference compound] | 10% | 1 | 0% | < 20% | inhibition at 3.2 ppm [5, 15]: 20 to 40%; inhibition at 12.5 ppm [6]: 40 to 70%; inhibition at 3.2 ppm [7, 15]: 20 to 40%; inhibition at 12.5 ppm [8, 16]: 20 to 40%; inhibition at 100 ppm [9, 17]: 20 to 40%; inhibition at 0.8 ppm [10, 18]: 40 to 70%
7 | CC(Cc1ccc2c(c1)OCO2)CN(C)Cc1ccc(Cl)nc1 (centres unmarked) [(d), 6-chloro-N-[2-methyl-3-(3,4-methylenedioxyphenyl)propyl]-N-methyl-3-pyridylmethylamine] | 10% | 1 | 0% | < 20% | –
8 | Cc1ccc(CC(C)CN(C)Cc2ccc(Cl)nc2)cc1C (centres unmarked) [(m-1), 6-chloro-N-[3-(3,4-dimethylphenyl)-2-methylpropyl]-N-me thyl-3-pyridylmethylamine] | 10% | 1 | 10% | 20 to 40% | –
9 | CC(Cc1ccc(C(C)(C)C)cc1)CN(C)Cc1ccc(Cl)nc1 (centres unmarked) [(m-2), N-[3-(4-t-butylphenyl)-2-methylpropyl]-6-chloro-N-methy 1-3-pyridylmethylamine] | – | 1 | – | – | –
10 | COc1cccc(CC(C)CN(C)Cc2ccc(Cl)nc2)c1 (centres unmarked) [(m-3), 6-chloro-N-[3-(3-methoxyphenyl)-2-methylpropyl]-N-methy 1-3-pyridylmethylamine] | – | 1 | – | – | Control Value [1]: 0%; Control Value [3]: 0%; Growth Inhibition B.c (1.6) [4, 14]: 1 (Hypha extension inhibition rate of less than 20%)
11 | CC(Cc1ccc(C(F)(F)F)c(F)c1)CN(C)Cc1ccc(Cl)nc1 (centres unmarked) [Compound I-9, 6-chloro-N-[3-(3-fluoro-4-trifluoromethylphenyl)-2-methylpropyl]-N-methyl-3-pyridylmethylamine] | 100% | 3 | 100% | 70 to 90% | inhibition at 100 ppm [11, 19]: 70 to 90%
12 | CC(Cc1ccc(C(F)(F)F)c(F)c1F)CN(C)Cc1ccc(Cl)nc1 (centres unmarked) [Compound I-10] | – | – | – | – | inhibition at 3.2 ppm [5]: 70 to 90%; Control Value [1]: 100%; inhibition at 12.5 ppm [6]: 70 to 90%; Relative Mobility ([2]; 24 h, 200 ug/mL): 3; inhibition at 3.2 ppm [7]: 70 to 90%; inhibition at 12.5 ppm [8]: 70 to 90%; inhibition at 25 ppm [12]: > 90%; Control Value [3]: 100%; inhibition at 100 ppm [11]: 70 to 90%; inhibition at 1.6 ppm [4]: > 90%; inhibition at 100 ppm [9]: 70 to 90%; inhibition at 0.8 ppm [10]: 70 to 90%
13 | CC(Cc1ccc(OC(F)(F)F)cc1)CN(C)Cc1ccc(Cl)nc1 (centres unmarked) [Compound I-12, 6-chloro-N-methyl-N-[3-(4-trifluoromethoxyphenyl)-2-methylpropyl]-3-pyridylmethylamine] | 100% | 10 | 100% | 70 to 90% | inhibition at 3.2 ppm [5, 15]: > 90%; inhibition at 12.5 ppm [6]: 70 to 90%; inhibition at 3.2 ppm [7, 15]: 70 to 90%; inhibition at 12.5 ppm [8, 16]: 70 to 90%; inhibition at 25 ppm ([12]; Pseudocercosporella herpotrichoides, 25 ppm in PDA culture medium, cultured 1 to 7 days): > 90%; inhibition at 100 ppm [11, 19]: 70 to 90%; inhibition at 100 ppm [9, 17]: > 90%; inhibition at 0.8 ppm [10, 18]: > 90%
14 | CC(Cc1ccc(F)c(OC(F)(F)F)c1)CN(C)Cc1ccc(Cl)nc1 (centres unmarked) [Compound I-16] | – | – | – | – | Control Value [1]: 100%; Relative Mobility ([2]; 24 h, 200 ug/mL): 9; Control Value [3]: 100%; inhibition at 1.6 ppm [4]: 70 to 90%; inhibition at 0.8 ppm [10]: > 90%
